Experimental findings from patent US12679807B2 (MERCK SHARP & DOHME LLC, priority 2020, dated 2026) are described below.

SMILES strings stand for the structures.

In the test the target is T1, GCS enzyme contained within Golgi preparations isolated from human A375 malignant melanoma skin cells (Homo sapiens, UniProt Q16739).
T1 construct: endogenous levels of GCS enzyme contained within Golgi preparations isolated from human A375 malignant melanoma skin cells; endogenous in cells; host or cells: A375 human malignant melanoma cells (crude Golgi preparation)
T1 sequence (Q16739 1-394): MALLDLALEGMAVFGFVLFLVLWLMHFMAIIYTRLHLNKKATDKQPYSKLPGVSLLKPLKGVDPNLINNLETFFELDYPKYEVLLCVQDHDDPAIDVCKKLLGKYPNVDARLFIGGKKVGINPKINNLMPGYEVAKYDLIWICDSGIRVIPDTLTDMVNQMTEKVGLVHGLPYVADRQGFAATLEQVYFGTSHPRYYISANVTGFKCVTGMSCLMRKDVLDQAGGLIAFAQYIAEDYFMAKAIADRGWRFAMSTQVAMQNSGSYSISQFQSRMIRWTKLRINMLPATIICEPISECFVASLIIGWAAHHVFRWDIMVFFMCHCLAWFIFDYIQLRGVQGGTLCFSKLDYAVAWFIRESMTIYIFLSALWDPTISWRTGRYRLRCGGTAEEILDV
In words: UDP-Glo glucosylceramide synthase biochemical assay. As to conditions: crude Golgi preparation from A375 cells; C6 ceramide and UDP-glucose substrates; 20 h incubation at room temperature; UDP detected by luminescence. In a few lines: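 Endogenous enzyme in A375 Golgi preparations (1.5 μg total protein) was preincubated 30 min with compound, then reacted 20 h at room temperature with UDP-glucose and ceramide.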
As a reminder, the EC50 is the midpoint of the concentration-response curve. Higher therefore signals a less potent agent. For the compound `CC(C)[C@H](CO)N1Cc2cccc(NC(=O)c3nc(Cl)ccc3C(F)(F)F)c2C1=O` [Compound 132, (R)-6-chloro-N-(2-(1-hydroxy-3-methylbutan-2-yl)-3-oxoisoindolin-4-yl)-3-(trifluoromethyl)picolinamide], a half-maximal response (EC50) required 46 nM. `Cn1cc2c(C(=O)Nc3cccc4c3C(=O)N(C(C3CC3)C3CC3)C4)cccc2n1` [Compound 133, N-(2-(dicyclopropylmethyl)-3-oxoisoindolin-4-yl)-2-methyl-2H-indazole-4-carboxamide]: the EC50 was found to be 49 nM. Under `Cc1cnc2c(c1C(=O)Nc1cccc3c1C(=O)N([C@@H](C)C1CC1)C3)OCO2` [Compound 134, (S)-N-(2-(1-cyclopropylethyl)-3-oxoisoindolin-4-yl)-6-methyl-[1,3]dioxolo[4,5-b]pyridine-7-carboxamide] stands 59 nM; under `COc1ccc2ncc(F)c(C(=O)Nc3cccc4c3C(=O)N(CC3CC3)C4)c2n1` [Compound 135, N-(2-(cyclopropylmethyl)-3-oxoisoindolin-4-yl)-3-fluoro-6-methoxy-1,5-naphthyridine-4-carboxamide], 64 nM; under `C[C@@H](C1CC1)N1Cc2cccc(NC(=O)c3c(Cl)cnc4c3OCO4)c2C1=O` [Compound 137, (S)-6-chloro-N-(2-(1-cyclopropylethyl)-3-oxoisoindolin-4-yl)-[1,3]dioxolo[4,5-b]pyridine-7-carboxamide], 77 nM.

Consider `CCOc1ncccc1C(=O)Nc1cccc2c1C(=O)N([C@H](C)C(C)(C)O)C2` [Compound 138, (R)-2-ethoxy-N-(2-(3-hydroxy-3-methylbutan-2-yl)-3-oxoisoindolin-4-yl)nicotinamide], for which the half-maximal effective concentration (EC50) was 88 nM. Under `O=C(Nc1cccc2c1C(=O)N(CC1CC1)C2)c1c(Cl)cncc1Cl` [Compound 139, 3,5-dichloro-N-(2-(cyclopropylmethyl)-3-oxoisoindolin-4-yl)isonicotinamide] stands 120 nM.

In the case of `C[C@@H](C1CC1)N1Cc2cccc(NC(=O)c3ccnc4c3CCC4)c2C1=O` [Compound 140, (S)-N-(2-(1-cyclopropylethyl)-3-oxoisoindolin-4-yl)-6,7-dihydro-5H-cyclopenta[b]pyridine-4-carboxamide], it took 120 nM to reach a half-maximal effect (EC50). Under `O=C(Nc1cccc2c1C(=O)N(C(C1CC1)C1CC1)C2)c1ccnc2[nH]ccc12` [Compound 141, N-(2-(dicyclopropylmethyl)-3-oxoisoindolin-4-yl)-1H-pyrrolo[2,3-b]pyridine-4-carboxamide] stands 140 nM; under `O=C(Nc1cccc2c1C(=O)N(C(C1CC1)C1CC1)C2)c1ccc(F)c2c1CCC2=O` [Compound 142, N-(2-(dicyclopropylmethyl)-3-oxoisoindolin-4-yl)-7-fluoro-1-oxo-2,3-dihydro-1H-indene-4-carboxamide], 140 nM; under `O=C(Nc1cc(Cl)cc2c1C(=O)N(CC1CC1)C2)c1ccnc2c1CCC2` [Compound 143, N-(6-chloro-2-(cyclopropylmethyl)-3-oxoisoindolin-4-yl)-6,7-dihydro-5H-cyclopenta[b]pyridine-4-carboxamide], 180 nM. As for `O=C(Nc1cccc2c1C(=O)N(CC1CC1)C2)c1ccnc2ccc(F)cc12` [Compound 144, N-(2-(cyclopropylmethyl)-3-oxoisoindolin-4-yl)-6-fluoroquinoline-4-carboxamide], the figure is 190 nM; as for `O=C(Nc1cccc2c1C(=O)N(C(C1CC1)C1CC1)C2)c1cccc2c1OCC2` [Compound 145, N-(2-(dicyclopropylmethyl)-3-oxoisoindolin-4-yl)-2,3-dihydrobenzofuran-7-carboxamide], 260 nM; as for `O=C(Nc1cccc2c1C(=O)N(CC1CC1)C2)c1ccnc2c1CCC2` [Compound 146, N-(2-(cyclopropylmethyl)-3-oxoisoindolin-4-yl)-6,7-dihydro-5H-cyclopenta[b]pyridine-4-carboxamide], 390 nM. As for `O=C(Nc1ccc(Cl)c2c1C(=O)N(CC1CC1)C2)c1ccnc2c1CCC2` [Compound 147, N-(7-chloro-2-(cyclopropylmethyl)-3-oxoisoindolin-4-yl)-6,7-dihydro-5H-cyclopenta[b]pyridine-4-carboxamide], the figure is 560 nM.

Take `Cc1cc2c(c(NC(=O)c3ccnc4c3CCC4)c1)C(=O)N(CC1CC1)C2` [Compound 148, N-(2-(Cyclopropylmethyl)-6-methyl-3-oxoisoindolin-4-yl)-6,7-dihydro-5H-cyclopenta[b]pyridine-4-carboxamide]: the concentration for a half-maximal effect (EC50) was 500 nM. Under `O=C(Nc1ccc(O)c2c1C(=O)N(CC1CC1)C2)c1ccnc2c1CCC2` [Compound 149, N-(2-(Cyclopropylmethyl)-7-hydroxy-3-oxoisoindolin-4-yl)-6,7-dihydro-5H-cyclopenta[b]pyridine-4-carboxamide] stands 900 nM. Under `O=C(Nc1cccc2c1C(=O)N(c1ccc(F)cc1)C2)OC1CN2CCC1CC2` (centres unmarked) [Compound 150, Quinuclidin-3-yl(2-(4-fluorophenyl)-3-oxoisoindolin-4-yl)carbamate] stands 740 nM; under `CC(C)(O)[C@@H](C1CC1)N1Cc2cccc(NC(=O)c3cccn4nccc34)c2C1=O` [Compound 156, (R)-N-(2-(1-cyclopropyl-2-hydroxy-2-methylpropyl)-3-oxoisoindolin-4-yl)pyrazolo[1,5-a]pyridine-4-carboxamide], 0.97 nM. Under `COc1nccc(C(=O)Nc2cccc3c2C(=O)N([C@H](C2CC2)C(C)(C)O)C3)c1C` [Compound 159, (R)-N-(2-(1-cyclopropyl-2-hydroxy-2-methylpropyl)-3-oxoisoindolin-4-yl)-2-methoxy-3-methylisonicotinamide] stands 2.5 nM. `Cn1cc2c(C(=O)Nc3cc(F)cc4c3C(=O)N([C@H](C3CC3)C(C)(C)O)C4)cccc2n1` [Compound 161, (R)-N-(2-(1-cyclopropyl-2-hydroxy-2-methylpropyl)-6-fluoro-3-oxoisoindolin-4-yl)-2-methyl-2H-indazole-4-carboxamide] returned an EC50 of 9.1 nM. Under `O=C(Nc1cccc2c1C(=O)N(CC1(O)CCC1)C2)c1ccnc2c1CCC2` [Compound 166, N-(2-((1-hydroxycyclobutyl)methyl)-3-oxoisoindolin-4-yl)-6,7-dihydro-5H-cyclopenta[b]pyridine-4-carboxamide] stands 360 nM; under `Cc1ccc(F)c(C(=O)Nc2cncc3c2C(=O)N([C@H](C2CC2)C(C)(C)O)C3)c1Cl` [Compound 167, (R)-2-chloro-N-(2-(1-cyclopropyl-2-hydroxy-2-methylpropyl)-1-oxo-2,3-dihydro-1H-pyrrolo[3,4-c]pyridin-7-yl)-6-fluoro-3-methylbenzamide], 2.1 nM.
